The values below come from patent US20240199612A1, “IMIDAZOPYRIDINYL INHIBITORS OF PLASMA KALLIKREIN” (SHIRE HUMAN GENETIC THERAPIES, INC., priority 2021, published 2024).

In test [1] the target is human activated kallikrein enzyme (Homo sapiens, UniProt P03952). The experiment in a line: Inhibition of human activated plasma kallikrein, fluorogenic peptide substrate (PFR-AMC) assay, 500 pM enzyme format. The test is classed as biochemical. As to conditions: format with 500 pM activated kallikrein, 300 uM PFR-AMC, 30 min preincubation, 10 min reaction, room temperature; read-out: Primary Dose Response Assay: Average EC50. As for the experimental part:
Inhibitory Activity of Exemplary Compounds against Plasma Kallikrein.
Compounds were evaluated for inhibition of the human activated kallikrein enzyme in two formats of an assay employing a fluorogenic peptide substrate. In one assay format, the concentrations of reagents were as follows: 20 mM Tris pH 7.5, 1 mM EDTA, 150 mM sodium chloride, 0.1% PEG-400, 0.1% Triton X-100, 500 pM activated kallikrein enzyme, 300 uM Pro-Phe-Arg-7-amido-4-methylcoumarin (PFR-AMC) substrate. Prior to reaction initiation with substrate, enzyme and inhibitors were preincubated for 30 min at room temperature. After initiation with substrate, reactions were incubated for 10 min at room temperature and fluorescence emission at 460 nm from 380 nm excitation measured with a microplate reader. In another assay format, the concentrations of reagents were as follows: 20 mM Tris pH 7.5, 1 mM EDTA, 150 mM sodium chloride, 0.1% PEG-400, 0.1% Triton X-100, 5 pM activated kallikrein enzyme, 300 uM PFR-AMC substrate. Prior to reaction initiation with substrate, enzyme and inhibitors were preincubated for 30 min at room temperature. After initiation with substrate, reactions were incubated for 18 hr at room temperature and fluorescence emission at 460 nm from 380 nm excitation measured with a microplate reader.

The target of another test is T1, plasma kallikrein (Homo sapiens, UniProt P03952).
T1 construct: from tissue; host or cells: sodium citrate collected human plasma (78% final)
The experiment in a line: Neat human plasma assay (contact pathway-activated plasma, FXIIa, PFR-AMC substrate). Format: biochemical. As to conditions: sodium citrate human plasma, 78% final plasma, 10 nM human FXIIa, 100 μM PFR-AMC, room temperature. As for the experimental part: Neat Human and Rat Plasma Assay
To analyze inhibition of plasma kallikrein in an ex vivo setting, the potency of compounds was measure in contact pathway-activated plasma assays. In a fluorogenic peptide substrate assay, test compounds dissolved in DMSO were added to sodium citrate collected human or rat plasma in a 96-well microplate. Alternatively, citrated plasma was collected from rats administered the compounds orally or by IV. 10 nM of human FXIIa (Enzyme Research Laboratories) diluted in PKa buffer (20 mM Tris-HCl, pH 7.5, 150 mM NaCl, 1 mM EDTA, 0.1% PEG-8000, and 0.1% Triton X-100) was added to the plasma, followed by the 100 μM of the profluorescent, synthetic plasma kallikrein substrate PFR-AMC (also diluted in PKa buffer). Final plasma concentration in the reaction was 78%. Fluorescence was immediately monitored by excitation/emission wavelengths of 360 nm/480 nm respectively over a period of 5 minutes in a microplate reader. The resulting linear increase in fluorescence emission (reflecting PKa proteolysis of PFR-AMC substrate) was fit to extract a proteolytic rate (fluorescent units over time), and this rate was subsequently plotted against compound inhibitor concentration. Resulting plots were fit to a standard 4-parameter IC50/IC90 equation to determine min/max values, IC50/90, and slope. All experimental steps were performed at room temperature.

Structures are written as SMILES.

T1 sequence (P03952 391-638 limits assumed): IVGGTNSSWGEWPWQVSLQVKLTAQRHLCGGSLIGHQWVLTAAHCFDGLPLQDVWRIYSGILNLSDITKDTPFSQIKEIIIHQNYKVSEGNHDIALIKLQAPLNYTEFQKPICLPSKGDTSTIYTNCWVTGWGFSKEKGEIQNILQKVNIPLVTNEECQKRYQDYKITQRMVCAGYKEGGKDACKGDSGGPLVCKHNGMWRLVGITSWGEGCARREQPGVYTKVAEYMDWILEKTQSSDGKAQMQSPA
T1 sequence (P03952 20-390 partner limits assumed): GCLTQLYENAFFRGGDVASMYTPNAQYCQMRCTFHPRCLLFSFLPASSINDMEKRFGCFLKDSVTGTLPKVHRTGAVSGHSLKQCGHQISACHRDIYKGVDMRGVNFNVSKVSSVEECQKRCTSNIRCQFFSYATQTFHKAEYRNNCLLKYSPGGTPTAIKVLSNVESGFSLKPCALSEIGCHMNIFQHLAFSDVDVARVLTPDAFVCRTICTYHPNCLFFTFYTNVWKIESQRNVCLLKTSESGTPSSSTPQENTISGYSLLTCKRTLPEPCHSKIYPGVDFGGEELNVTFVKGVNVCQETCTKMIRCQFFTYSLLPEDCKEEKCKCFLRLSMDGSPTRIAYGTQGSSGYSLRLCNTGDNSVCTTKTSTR
Sequence of human activated kallikrein enzyme (P03952 391-638 limits assumed): as the sequence (P03952 391-638 limits assumed) above
Sequence of human activated kallikrein enzyme (P03952 20-390 partner limits assumed): as the sequence (P03952 20-390 partner limits assumed) above

With `CC(OC(=O)Nc1cc(NCc2cn3cc(C4CC4)ccc3n2)ccn1)c1cccc(Cl)c1` (centres unmarked) [Compound I-15, 1-(3-chlorophenyl)ethyl (4-(((6-cyclopropylimidazo[1,2-a]pyridin-2-yl)methyl)amino)pyridin-2-yl)carbamate], in test [1], the EC50 is below 0.005 µM. The compound also registered a 90% effect concentration (IC90) against plasma kallikrein of 2.5 to 7.5 µM.
For `O=C(Nc1cc(NCc2cn3cc(C4CC4)ccc3n2)ccn1)OCc1cc(Cl)ccc1-n1cnnn1` [Compound I-11, 5-chloro-2-(1H-tetrazol-1-yl)benzyl (4-(((6-cyclopropylimidazo[1,2-a]pyridin-2-yl)methyl)amino)pyridin-2-yl)carbamate] the same measures were below 0.005 µM and 2.5 to 7.5 µM.
For `O=C(Nc1cc(NCc2cn3cc(C4CC4)ccc3n2)ncn1)OCc1cc(Cl)ccn1` [Compound I-26, (4-chloropyridin-2-yl)methyl (6-(((6-cyclopropylimidazo[1,2-a]pyridin-2-yl)methyl)amino)pyrimidin-4-yl)carbamate] the same measures were below 0.005 µM and at most 2.5 µM.
In the case of `CC(OC(=O)Nc1cc(NCc2cn3cc(C4CC4)ccc3n2)ccn1)c1cc(Cl)ccc1-n1cnnn1` (centres unmarked) [Compound I-21, 1-(5-chloro-2-(1H-tetrazol-1-yl)phenyl)ethyl (4-(((6-cyclopropylimidazo[1,2-a]pyridin-2-yl)methyl)amino)pyridin-2-yl)carbamate], the 50% effective concentration (EC50) in test [1] is below 0.005 µM. This compound came in with an IC90 on plasma kallikrein of 2.5 to 7.5 µM.
For `O=C(Nc1cc(NCc2cn3cc(C4CC4)ccc3n2)ncn1)OCc1cc(Cl)ccc1-n1cnnn1` [Compound I-8, 5-chloro-2-(1H-tetrazol-1-yl)benzyl (6-(((6-cyclopropylimidazo[1,2-a]pyridin-2-yl)methyl)amino)pyrimidin-4-yl)carbamate] the same measures were below 0.005 µM and at most 2.5 µM.
Turning to `O=C(Nc1cc(OCc2cn3cc(C4CC4)ccc3n2)ccn1)OCc1cc(Cl)ccc1-n1cnnn1` [Compound I-12, 5-chloro-2-(1H-tetrazol-1-yl)benzyl (4-((6-cyclopropylimidazo[1,2-a]pyridin-2-yl)methoxy)pyridin-2-yl)carbamate], the EC50 in test [1] is below 0.005 µM. The IC90 against plasma kallikrein lay in the range of 7.5 to 15 µM.
In the case of `O=C(Nc1cc(NCc2cn3cc(C4CC4)ccc3n2)ccn1)OCc1cccc(Cl)c1` [Compound I-13, 3-chlorobenzyl (4-(((6-cyclopropylimidazo[1,2-a]pyridin-2-yl)methyl)amino)pyridin-2-yl)carbamate], the EC50 in test [1] is below 0.005 µM. The compound also displayed a concentration for an effect of 90% (IC90) against plasma kallikrein of 7.5 to 15 µM.
